Data from US11236059B2, “Targeted cytotoxic ratjadone derivatives and conjugates thereof” (HELMHOLTZ-ZENTRUM FUER INFEKTIONSFORSCHUNG GMBH, priority 2017, dated 2022).

test system: KB 3.1 (DSMZ ACC 158) cells; experiment: Cell proliferation assay under folate free conditions; format: cell-based; conditions: RPMI-medium without folic acid + 10% dialyzed fetal calf serum; MTT assay after 1, 2 and 5 days (day of the value not given); read-out: IC50 [nM] KB 3.1 (Folate-Ratjadone Conjugates)
Protocol: KB 3.1 (DSMZ ACC 158) cells were cultivated at 37° C. and 10% C002 in RMPI-medium without folic acid (Gibco) with 10% fetal calf serum (Gibco). 120 μL of suspended cells (100.000/mL) were seeded in wells of 96-well plates and after 24 h at 37° C. and 10% CO2 the medium was removed, the cells were washed with PBS and RPMI-medium without folic acid (Gibco)+10% dialyzed fetal calf serum (Sigma) were added to the cells, before after additional 24 h at 37° C. and 10% C002 60 μL of serial dilutions of the test compound were given to cells. After 1, 2 and 5 days of incubation growth inhibition (IC50) was determined using an MTT assay.^[64]

In order of falling IC50:
1. C/C=C/[C@@H]1O[C@H]([C@@H](/C=C/C=C(\C)C[C@@H](C)/C=C(C)\C=C\[C@H]2CC=CC(=O)O2)NC(=O)OCCc2cn(CCC[C@H](NC(=O)[C@@H](CC(=O)O)NC(=O)[C@@H](CC(=O)O)NC(=O)[C@@H](CC(=O)O)NC(=O)CC[C@H](NC(=O)c3ccc(NCc4cnc5nc(N)nc(O)c5n4)cc3)C(=O)O)C(=O)N[C@H](CC(=O)O)C(=O)N[C@H](CC(=O)O)C(=O)N[C@H](CCCCN)C(=O)O)nn2)C[C@@H](O)[C@@H]1C [FA-10-16R-Aminoratjadone]  708 nM
2. C/C=C/[C@@H]1O[C@H]([C@@H](/C=C/C=C(\C)C[C@@H](C)/C=C(C)\C=C\[C@H]2CC=CC(=O)O2)NC(=O)CCSSC[C@H](NC(=O)CC[C@H](NC(=O)c2ccc(NCc3cnc4nc(N)nc(O)c4n3)cc2)C(=O)O)C(=O)O)C[C@@H](O)[C@@H]1C [FA-SS-16R-Aminoratjadone, N^2-(4-(((2-amino-4-hydroxypteridin-6-yl)methyl)amino)benzoyl)-N^5-((R)-1-carboxy-2-((3-(((1R,2E,4E,7R,8Z,10E)-1-((2S,4R,5S,6S)-4-hydroxy-5-methyl-6-((E)-prop-1-en-1-yl)tetrahydro-2H-pyran-2-yl)-5,7,9-trimethyl-11-((R)-6-oxo-3,6-dihydro-2H-pyran-2-yl)undeca-2,4,8,10-tetraen-1-yl)amino)-3-oxopropyl)disulfaneyl)ethyl)-L-glutamine]  295 nM
3. C/C=C/[C@@H]1O[C@H]([C@@H](/C=C/C=C(\C)C[C@@H](C)/C=C(C)\C=C\[C@H]2CC=CC(=O)O2)NC(=O)OCCc2cn(CCC[C@H](NC(=O)CC[C@H](NC(=O)CC[C@H](NC(=O)c3ccc(NCc4cnc5nc(N)nc(O)c5n4)cc3)C(=O)O)C(=O)O)C(=O)O)nn2)C[C@@H](O)[C@@H]1C [FA-7-16R-Aminoratjadone, N^2-(4-(((2-amino-4-hydroxypteridin-6-yl)methyl)amino)benzoyl)-N^5—((S)-1-carboxy-4-(((S)-1-carboxy-4-(4-(2-((((1R,2E,4E,7R,8Z,10E)-1-((2S,4R,5S,6S)-4-hydroxy-5-methyl-6-((E)-prop-1-en-1-yl)tetrahydro-2H-pyran-2-yl)-5,7,9-trimethyl-11-((R)-6-oxo-3,6-dihydro-2H-pyran-2-yl)undeca-2,4,8,10-tetraen-1-yl)carbamoyl)oxy)ethyl)-1H-1,2,3-triazol-1-yl)butyl)amino)-4-oxobutyl)-L-glutamine]  190 nM
4. C/C=C/[C@@H]1O[C@H]([C@@H](/C=C/C=C(\C)C[C@@H](C)/C=C(C)\C=C\[C@H]2CC=CC(=O)O2)NC(=O)OCCc2cn(-c3ccc(C(=O)NCCCC[C@H](NC(=O)CC[C@H](NC(=O)c4ccc(NCc5cnc6nc(N)nc(O)c6n5)cc4)C(=O)O)C(=O)N[C@H](CCCCN)C(=O)O)cc3)nn2)C[C@@H](O)[C@@H]1C [FA-8-16R-Aminoratjadone, N^2—((S)-4-(4-(((2-amino-4-hydroxypteridin-6-yl)methyl)amino)benzamido)-4-carboxybutanoyl)-N^6-(4-(4-(2-((((1R,2E,4E,7R,8Z,10E)-1-((2S,4R,5S,6S)-4-hydroxy-5-methyl-6-((E)-prop-1-en-1-yl)tetrahydro-2H-pyran-2-yl)-5,7,9-trimethyl-11-((R)-6-oxo-3,6-dihydro-2H-pyran-2-yl)undeca-2,4,8,10-tetraen-1-yl)carbamoyl)oxy)ethyl)-1H-1,2,3-triazol-1-yl)benzoyl)-L-lysyl-D-lysine]  129 nM
5. C/C=C/[C@@H]1O[C@H]([C@@H](/C=C/C=C(\C)C[C@@H](C)/C=C(C)\C=C\[C@H]2CC=CC(=O)O2)NC(=O)OCCc2cn(CCC[C@H](NC(=O)[C@@H](CC(=O)O)NC(=O)[C@@H](CC(=O)O)NC(=O)[C@@H](CC(=O)O)NC(=O)[C@@H](CC(=O)O)NC(=O)[C@@H](CC(=O)O)NC(=O)CC[C@H](NC(=O)c3ccc(NCc4cnc5nc(N)nc(O)c5n4)cc3)C(=O)O)C(=O)O)nn2)C[C@@H](O)[C@@H]1C [FA-5-16R-Aminoratjadone]  50.3 nM
6. C/C=C/[C@@H]1O[C@H]([C@@H](/C=C/C=C(\C)C[C@@H](C)/C=C(C)\C=C\[C@H]2CC=CC(=O)O2)NC(=O)OCCc2cn(CCC[C@H](NC(=O)CC[C@H](NC(=O)c3ccc(NCc4cnc5nc(N)nc(O)c5n4)cc3)C(=O)O)C(=O)N[C@H](CCCCN)C(=O)O)nn2)C[C@@H](O)[C@@H]1C [FA-9-16R-Aminoratjadone, ((S)-2-((S)-4-(4-(((2-amino-4-hydroxypteridin-6-yl)methyl)amino)benzamido)-4-carboxybutanamido)-5-(4-(2-((((1R,2E,4E,7R,8Z,10E)-1-((2S,4R,5S,6S)-4-hydroxy-5-methyl-6-((E)-prop-1-en-1-yl)tetrahydro-2H-pyran-2-yl)-5,7,9-trimethyl-11-((R)-6-oxo-3,6-dihydro-2H-pyran-2-yl)undeca-2,4,8,10-tetraen-1-yl)carbamoyl)oxy)ethyl)-1H-1,2,3-triazol-1-yl)pentanoyl)-D-lysine]  47.6 nM
7. C/C=C/[C@@H]1O[C@H]([C@@H](/C=C/C=C(\C)C[C@@H](C)/C=C(C)\C=C\[C@H]2CC=CC(=O)O2)NC(=O)OCc2ccc(NC(=O)[C@H](CCCNC(N)=O)NC(=O)[C@@H](NC(=O)OC[C@@H]3[C@@H]4CCc5nnn(CCC[C@H](NC(=O)[C@@H](CC(=O)O)NC(=O)[C@@H](CC(=O)O)NC(=O)[C@H](CCCn6nnc7c6CC[C@H]6[C@@H](CC7)[C@H]6COC(=O)N[C@H](C(=O)N[C@@H](CCCNC(N)=O)C(=O)Nc6ccc(COC(=O)N[C@H](/C=C/C=C(\C)C[C@@H](C)/C=C(C)\C=C\[C@H]7CC=CC(=O)O7)[C@@H]7C[C@@H](O)[C@H](C)[C@H](/C=C/C)O7)cc6)C(C)C)NC(=O)[C@@H](CC(=O)O)NC(=O)[C@@H](CC(=O)O)NC(=O)[C@H](CCCn6nnc7c6CC[C@H]6[C@@H](CC7)[C@H]6COC(=O)N[C@H](C(=O)N[C@@H](CCCNC(N)=O)C(=O)Nc6ccc(COC(=O)N[C@H](/C=C/C=C(\C)C[C@@H](C)/C=C(C)\C=C\[C@H]7CC=CC(=O)O7)[C@@H]7C[C@@H](O)[C@H](C)[C@H](/C=C/C)O7)cc6)C(C)C)NC(=O)[C@@H](CC(=O)O)NC(=O)[C@@H](CC(=O)O)NC(=O)CC[C@H](NC(=O)c6ccc(NCc7cnc8nc(N)nc(O)c8n7)cc6)C(=O)O)C(=O)O)c5CC[C@@H]43)C(C)C)cc2)C[C@@H](O)[C@@H]1C [FA-11-(Val-Cit-PABA-16R-Aminoratjadone)3]  45 nM
8. C/C=C/[C@@H]1O[C@H]([C@@H](/C=C/C=C(\C)C[C@@H](C)/C=C(C)\C=C\[C@H]2CC=CC(=O)O2)NC(=O)OCc2ccc(NC(=O)[C@H](CCCNC(N)=O)NC(=O)[C@@H](NC(=O)OC[C@@H]3[C@@H]4CCc5nnn(CCC[C@H](NC(=O)[C@@H](CC(=O)O)NC(=O)[C@@H](CC(=O)O)NC(=O)[C@@H](CC(=O)O)NC(=O)CC[C@H](NC(=O)c6ccc(NCc7cnc8nc(N)nc(O)c8n7)cc6)C(=O)O)C(=O)N[C@H](CC(=O)O)C(=O)N[C@H](CC(=O)O)C(=O)N[C@H](CCCCN)C(=O)O)c5CC[C@@H]43)C(C)C)cc2)C[C@@H](O)[C@@H]1C [FA-10-Val-Cit-PABA-16R-Aminoratjadone]  35.3 nM
